Experimental findings from PubChem BioAssay AID248 (DTP/NCI, 2004) are described below.

SMILES strings stand for the structures. “And” between values parts separate entries of the source, which are not always exact repeats. Equal values may be shown once. Inconclusive results and toxic doses are left out.

The subject of this experiment is L1210 leukemia ip in BDF1 mice, survival T/C. In words: NCI In Vivo Anticancer Drug Screen. Data for tumor model L1210 Leukemia (intraperitoneal) in B6D2F1 (BDF1) mice. The following applies: endpoint: mean survival time, higher = longer survival. In a few lines: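 In this screen, tumor-bearing mice given compound are compared to those given vehicle, and their survival values are reported as a treated-to-control quotient.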

`COC(OC(CO)C(O)S(=O)(=O)O)C(O)S(=O)(=O)O` (centres undefined): the T/C (dose: 12.5 mg/kg/injection, schedule: Q03HX008 (ip), vehicle: saline) is 100 % of control; the T/C (dose: 12.5 mg/kg/injection, schedule: Q03HX016 (ip), vehicle: saline) is 97 % of control; the T/C (dose: 12.5 mg/kg/injection, schedule: Q03HX024 (ip), vehicle: saline) is 102 % of control; the T/C (dose: 25.0 mg/kg/injection, schedule: Q03HX008 (ip), vehicle: saline) was 97 % of control; the T/C (dose: 25.0 mg/kg/injection, schedule: Q03HX016 (ip), vehicle: saline) was 102 % of control; the T/C (dose: 25.0 mg/kg/injection, schedule: Q03HX024 (ip), vehicle: saline) is 107 % of control. For the same compound, the T/C (dose: 35.0 mg/kg/injection, schedule: Q01DX001 (ip), vehicle: saline) was 105 % of control and 114 % of control; the T/C (dose: 35.0 mg/kg/injection, schedule: Q01DX009 (ip), vehicle: saline) was 123 % of control; the T/C (dose: 50.0 mg/kg/injection, schedule: Q01DX009 (sc), vehicle: saline) was 107 % of control; the T/C (dose: 50.0 mg/kg/injection, schedule: Q03HX008 (ip), vehicle: saline) was 117 % of control; the T/C (dose: 50.0 mg/kg/injection, schedule: Q03HX016 (ip), vehicle: saline) is 113 % of control; the T/C (dose: 50.0 mg/kg/injection, schedule: Q03HX024 (ip), vehicle: saline) is 122 % of control. Also, the T/C is 112 % of control and 121 % of control (dose: 70.0 mg/kg/injection, schedule: Q01DX001 (ip), vehicle: saline); 244 % of control (dose: 100.0 mg/kg/injection, schedule: Q01DX001 (ip), vehicle: saline); 107 % of control (dose: 100.0 mg/kg/injection, schedule: Q01DX009 (oral), vehicle: saline); 115 % of control (dose: 100.0 mg/kg/injection, schedule: Q01DX009 (sc), vehicle: saline); 152 % of control (dose: 100.0 mg/kg/injection, schedule: Q03HX008 (ip), vehicle: saline); 167 % of control (dose: 100.0 mg/kg/injection, schedule: Q03HX024 (ip), vehicle: saline). Besides, the T/C is, setting by setting: (dose: 100.0 mg/kg/injection, schedule: Q04DX003 (ip), vehicle: saline) 122 % of control; (dose: 140.0 mg/kg/injection, schedule: Q01DX001 (ip), vehicle: saline) 120 % of control and 121 % of control; (dose: 200.0 mg/kg/injection, schedule: Q01DX009 (ip), vehicle: saline) 151 % of control; (dose: 200.0 mg/kg/injection, schedule: Q01DX009 (oral), vehicle: saline) 116 % of control; (dose: 200.0 mg/kg/injection, schedule: Q01DX009 (sc), vehicle: saline) 113 % of control; (dose: 280.0 mg/kg/injection, schedule: Q01DX001 (ip), vehicle: saline) 124 % of control. The T/C runs as follows: (dose: 280.0 mg/kg/injection, schedule: Q01DX009 (ip), vehicle: saline) 152 % of control; (dose: 400.0 mg/kg/injection, schedule: Q01DX001 (ip), vehicle: saline) 194 % of control; (dose: 400.0 mg/kg/injection, schedule: Q01DX009 (oral), vehicle: saline) 116 % of control; (dose: 400.0 mg/kg/injection, schedule: Q04DX003 (ip), vehicle: saline) 151 % of control; (dose: 800.0 mg/kg/injection, schedule: Q01DX009 (oral), vehicle: saline) 103 % of control.
For `CN1CC(COC(=O)Cc2c[nH]c3ccccc23)C=C2c3cccc4[nH]cc(c34)CC21` (centres undefined), the T/C (dose: 25.0 mg/kg/injection, schedule: Q04DX003 (ip), vehicle: alcohol) was 98 % of control; the T/C (dose: 50.0 mg/kg/injection, schedule: Q04DX003 (ip), vehicle: alcohol) was 96 % of control; the T/C (dose: 100.0 mg/kg/injection, schedule: Q04DX003 (ip), vehicle: alcohol) was 102 % of control; the T/C (dose: 200.0 mg/kg/injection, schedule: Q04DX003 (ip), vehicle: alcohol) is 96 % of control; the T/C (dose: 400.0 mg/kg/injection, schedule: Q04DX003 (ip), vehicle: alcohol) was 96 % of control.
